Results from patent EP4603105A1, “PHARMACEUTICAL COMPOSITION CONTAINING CYCLIC COMPOUND HAVING SELECTIVE KRAS INHIBITORY EFFECT AGAINST HRAS AND NRAS” (CHUGAI SEIYAKU KABUSHIKI KAISHA, priority 2022, dated 2024).
Where a SMILES comes first, the peptide text is derived from it. Bridges are numbered along the chain shown (N, C = ends). [ ]: non-standard residue; d: D form. The star is where a group is joined. hPhe(3,5-F2-4-CF3) = N[C@@H](CCc1cc(F)c(C(F)(F)F)c(F)c1)C(=O)O; hPhe(3-Cl-4-CF3) = N[C@@H](CCc1ccc(C(F)(F)F)c(Cl)c1)C(=O)O; NPrPhe(4-CF3) = CCCN[C@@H](Cc1ccc(C(F)(F)F)cc1)C(=O)O; NMeGly(cPent) = CN[C@H](C(=O)O)C1CCCC1; NMeD = CN[C@@H](CC(=O)O)C(=O)O; NMeL = CN[C@@H](CC(C)C)C(=O)O; Morpholide = C1CN(*)CCO1; NMeA = CN[C@@H](C)C(=O)O; Ac5c = NC1(C(=O)O)CCCC1; Aze = O=C(O)[C@@H]1CCN1; Ac3c = NC1(C(=O)O)CC1; Sar = CNCC(=O)O

How the values were obtained:
[1] = target: HRAS wild-type protein (Homo sapiens, UniProt P01112); assay: Binding to HRAS by surface plasmon resonance (SPR), KD and KD ratio to KRAS
Chain of HRAS wild-type protein (P01112 whole entry): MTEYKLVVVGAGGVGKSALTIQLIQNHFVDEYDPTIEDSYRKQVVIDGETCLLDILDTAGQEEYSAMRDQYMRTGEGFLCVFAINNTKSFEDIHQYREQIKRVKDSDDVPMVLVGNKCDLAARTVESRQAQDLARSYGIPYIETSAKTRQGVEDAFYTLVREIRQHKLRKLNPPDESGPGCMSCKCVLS
In short: (§1)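 Measured at 30°C: SPR with GDP-loaded, E. coli-expressed biotin-Avi RAS captured (~100–300 RU), ascending 75 s compound injections, HBS pH 7.4 with GDP, MgCl2, 4% DMSO. KD from 1:1 fit.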

[2] = test system: human lung cancer strain NCI-H441; type: cell-based
In short: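 Signal came from […] measured per well once the reagent was added. Beforehand, cells were cultured at 37°C and 5% carbon dioxide on a compound series serially diluted in dimethyl sulfoxide.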

[3] = target: GDP-bound NRAS wild-type protein (Homo sapiens, UniProt P01111); assay: Binding to NRAS by surface plasmon resonance (SPR), KD and KD ratio to KRAS
Chain of GDP-bound NRAS wild-type protein (P01111 whole entry): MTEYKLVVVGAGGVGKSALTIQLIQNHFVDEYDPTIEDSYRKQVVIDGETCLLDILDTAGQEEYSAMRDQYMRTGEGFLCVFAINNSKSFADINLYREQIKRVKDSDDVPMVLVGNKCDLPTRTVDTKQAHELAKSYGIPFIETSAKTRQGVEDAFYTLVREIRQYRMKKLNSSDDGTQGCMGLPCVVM
In short: as §1

[4] = ratio of KD value for HRAS wild-type protein to KD value for KRAS (SPR)
[5] = ratio of KD value for GDP-bound NRAS wild-type protein to KD value for KRAS (SPR)
[6] = ratio of KD for HRAS wild-type protein to KD for KRAS
[7] = ratio of KD for GDP-bound NRAS wild-type protein to KD for KRAS

## CCO[C@@H]1C[C@H]2C(=O)NC3(CC(C)(C)C3)C(=O)N(C)[C@@H](C3CCCC3)C(=O)N(C)[C@H](C(C)C)CC(=O)N(C)[C@@H](CC)C(=O)N[C@@H]([C@@H](C)CC)C(=O)N(C)CC(=O)N(C)[C@H]3C/C=C\CCN(C3=O)[C@@H](CC3CCCCC3)C(=O)N(C)CC(=O)N[C@@H](CCc3cc(F)c(C(F)(F)F)c(F)c3)C(=O)N2C1 [PP1603]
[1]; [4]
  HRAS /KRAS: B (a compound having 3 or more and less than 10 is denoted as B)
[2]
  IC50: 132 nM
[3]; [5]
  NRAS /KRAS: B (a compound having 3 or more and less than 10 is denoted as B)

## CCC[C@H]1C(=O)N[C@@H]([C@@H](C)CC)C(=O)N(C)CC(=O)N(C)[C@H]2C/C=C\CCN(C2=O)[C@@H](Cc2ccc(C(F)(F)F)cc2)C(=O)N(C)CC(=O)N[C@@H](CCc2ccc3sc(C)c(C)c3c2)C(=O)N2C[C@H](OCC)C[C@H]2C(=O)NC2(CC(C)(C)C2)C(=O)N(C)[C@@H](C(CC)CC)C(=O)N(C)[C@H](C(=O)N(C)C)CC(=O)N1C [PP2900]
[1]; [6]
  HRAS /KRAS: A (a compound having 10 or more and less than 20 is denoted as A)
[2]
  IC50: 14.5 nM
[3]; [7]
  NRAS /KRAS: AA (a compound having 20 or more is denoted as AA)

## CCCN1C(=O)[C@@H]2CCN2C(=O)[C@H](C)N(C)C(=O)[C@H]([C@@H](C)CC)NC(=O)[C@H](CC(C)C)N(C)C(=O)C[C@@H](C(=O)N2CCOCC2)N(C)C(=O)[C@H](C2CCCC2)N(C)C(=O)C2(CC2)NC(=O)[C@@H]2CCCN2C(=O)[C@H](CCc2ccc(C(F)(F)F)c(Cl)c2)NC(=O)CN(C)C(=O)[C@@H]1Cc1ccc(C(F)(F)F)cc1 [PP0224] ([NMeL]I[NMeA][Aze][NPrPhe(4-CF3)][Sar][hPhe(3-Cl-4-CF3)]P[Ac3c][NMeGly(cPent)][NMeD]-Morpholide; lactam N-11)
[1]; [6]
  HRAS /KRAS: B (a compound having 3 or more and less than 10 is denoted as B)
[2]
  IC50: 2 nM
[3]; [7]
  NRAS /KRAS: C (A compound having a KD ratio of 0.1 or more and less than 3 is denoted as C)

## CCC[C@H]1C(=O)N[C@@H]([C@@H](C)CC)C(=O)N(C)CC(=O)N(C)[C@H]2C/C=C\CCN(C2=O)[C@@H](Cc2ccc(C(F)(F)F)cc2)C(=O)N(C)CC(=O)N[C@@H](CCc2cc(F)c3c(c2)CCC3)C(=O)N2C[C@H](OCC)C[C@H]2C(=O)NC2(CC(C)(C)C2)C(=O)N(C)[C@@H](C2CCCC2)C(=O)N(C)[C@H](C(=O)N(C)C)CC(=O)N1C [PP2849]
[1]; [6]
  HRAS /KRAS: A (a compound having 10 or more and less than 20 is denoted as A)
[2]
  IC50: 28.2 nM
[3]; [7]
  NRAS /KRAS: A (a compound having 10 or more and less than 20 is denoted as A)

## CCO[C@@H]1C[C@H]2C(=O)NC3(CCC3)C(=O)N(C)[C@@H](C3CCCC3)C(=O)N(C)[C@H](C(=O)N3CCOCC3)CC(=O)N(C)[C@@H](Cc3ccc(C)cc3)C(=O)N[C@@H]([C@@H](C)CC)C(=O)N(C)CC(=O)N(C)[C@H]3CCCCCN(C3=O)[C@@H](Cc3ccc(C(F)(F)F)cc3)C(=O)N(C)CC(=O)N[C@@H](CCc3cc(F)c(C(F)(F)F)c(F)c3)C(=O)N2C1 [PP0933]
[1]; [6]
  HRAS /KRAS: B (a compound having 3 or more and less than 10 is denoted as B)
[2]
  IC50: 150 nM
[3]; [7]
  NRAS /KRAS: A (a compound having 10 or more and less than 20 is denoted as A)

## CC[C@H](C)[C@@H]1NC(=O)[C@@H]2CCCCCc3ccc(cc3)C[C@@H](C(=O)N(C)CC(=O)N[C@@H](CCc3ccc(C(F)(F)F)c(OC)c3)C(=O)N3C[C@H](OC4CCC4)C[C@H]3C(=O)NC3(CC(C)(C)C3)C(=O)N(C)[C@@H](C3CCCC3)C(=O)N(C)[C@H](C(=O)N(C)C)CC(=O)N2C)N2CC/C=C\C[C@@H](C2=O)N(C)C(=O)CN(C)C1=O [PP3073]
[1]; [6]
  HRAS /KRAS: A (a compound having 10 or more and less than 20 is denoted as A)
[2]
  IC50: 1.9 nM
[3]; [7]
  NRAS /KRAS: A (a compound having 10 or more and less than 20 is denoted as A)

## CC[C@H](C)[C@@H]1NC(=O)[C@@H]2CCCc3ccc(cc3)C[C@@H](C(=O)N(C)CC(=O)N[C@@H](CCc3ccc(C(F)(F)F)c(OC)c3)C(=O)N3CC4(CC4)C[C@H]3C(=O)NC3(CC(C)(C)C3)C(=O)N(C)[C@@H](C3CCCC3)C(=O)N(C)[C@H](C(=O)N(C)CC)CC(=O)N2C)N2CC/C=C\C[C@@H](C2=O)N(C)C(=O)CN(C)C1=O [PP3087]
[1]; [6]
  HRAS /KRAS: B (a compound having 3 or more and less than 10 is denoted as B)
[2]
  IC50: 6.9 nM
[3]; [7]
  NRAS /KRAS: A (a compound having 10 or more and less than 20 is denoted as A)

## CC[C@H](C)[C@@H]1NC(=O)[C@H](CC(C)C)N(C)C(=O)C[C@@H](C(=O)N(C)C)N(C)C(=O)[C@H](C2CCCC2)N(C)C(=O)C2(CC(C)(C)C2)NC(=O)[C@@H]2C[C@H](C)CN2C(=O)[C@H](CCc2cc(F)c(C(F)(F)F)c(F)c2)NC(=O)CN(C)C(=O)[C@H](Cc2ccc(C(F)(F)F)cc2)N2CC/C=C\C[C@@H](C2=O)N(C)C(=O)CN(C)C1=O [PP1662]
[1]; [4]
  HRAS /KRAS: B (a compound having 3 or more and less than 10 is denoted as B)
[2]
  IC50: 6.4 nM
[3]; [5]
  NRAS /KRAS: A (a compound having 10 or more and less than 20 is denoted as A)

## CCO[C@@H]1C[C@H]2C(=O)NC3(CCC3)C(=O)N(C)[C@@H](C3CCCC3)C(=O)N(C)[C@H](C(=O)N(C)CC)CC(=O)N(C)[C@@H](CC)C(=O)N[C@@H]([C@@H](C)CC)C(=O)N(C)CC(=O)N(C)[C@H]3C/C=C\CCN(C3=O)[C@@H](CC3CCCCC3)C(=O)N(C)CC(=O)N[C@@H](CCc3cc(F)c(C(F)(F)F)c(F)c3)C(=O)N2C1 [PP1552]
[1]; [4]
  HRAS /KRAS: A (a compound having 10 or more and less than 20 is denoted as A)
[2]
  IC50: 15.9 nM
[3]; [5]
  NRAS /KRAS: A (a compound having 10 or more and less than 20 is denoted as A)

## CCC[C@H]1C(=O)N[C@@H]([C@@H](C)CC)C(=O)N(C)CC(=O)N(C)[C@H]2C/C=C\CCN(C2=O)[C@@H](Cc2ccc(C(F)(F)F)cc2)C(=O)N(C)CC(=O)N[C@@H](CCc2ccc(C(F)(F)F)c(OC)c2)C(=O)N2CCCCC[C@H]2C(=O)NC2(CC(C)(C)C2)C(=O)N(C)[C@@H](C(CC)CC)C(=O)N(C)[C@H](C(=O)N(C)C)CC(=O)N1C [PP2968]
[1]; [6]
  HRAS /KRAS: A (a compound having 10 or more and less than 20 is denoted as A)
[2]
  IC50: 29.5 nM
[3]; [7]
  NRAS /KRAS: AA (a compound having 20 or more is denoted as AA)

## CCCN1C(=O)[C@@H]2CCN2C(=O)CN(C)C(=O)[C@H]([C@@H](C)CC)NC(=O)[C@H](CC(C)C)N(C)C(=O)C[C@@H](C(=O)N2CCOCC2)N(C)C(=O)[C@H](C2CCCC2)N(C)C(=O)C2(CCCC2)NC(=O)[C@@H]2CCCN2C(=O)[C@H](CCc2cc(F)c(C(F)(F)F)c(F)c2)NC(=O)CN(C)C(=O)[C@@H]1Cc1ccc(C(F)(F)F)cc1 [PP0789] ([NMeL]I[Sar][Aze][NPrPhe(4-CF3)][Sar][hPhe(3,5-F2-4-CF3)]P[Ac5c][NMeGly(cPent)][NMeD]-Morpholide; lactam N-11)
[1]; [6]
  HRAS /KRAS: B (a compound having 3 or more and less than 10 is denoted as B)
[2]
  IC50: 12.5 nM
[3]; [7]
  NRAS /KRAS: C (A compound having a KD ratio of 0.1 or more and less than 3 is denoted as C)

## CC[C@H](C)[C@@H]1NC(=O)[C@H](CC(C)C)N(C)C(=O)C[C@@H](C(=O)N2CCOCC2)N(C)C(=O)[C@H](C2CCCC2)N(C)C(=O)C2(CCC2)NC(=O)[C@@H]2[C@@H](OCC3CC3)CCN2C(=O)[C@H](CCc2cc(F)c(C(F)(F)F)c(F)c2)NC(=O)CN(C)C(=O)[C@H](Cc2ccc(C(F)(F)F)cc2)N2CCCC[C@@H](C2=O)N(C)C(=O)CN(C)C1=O [PP1072]
[1]; [6]
  HRAS /KRAS: B (a compound having 3 or more and less than 10 is denoted as B)
[2]
  IC50: 13 nM
[3]; [7]
  NRAS /KRAS: B (a compound having 3 or more and less than 10 is denoted as B)
